# Test results from US20040006061A1, “Alkoxybenzylamine” (priority 2001, published 2004).
# Read-outs that look alike come from different tables or passages of the source.
# Key:
# [1] = test system: Staphylococcus hominis DSM 20328; assay: Determination of the Minimum Inhibitory Concentration (MIC value) in microtitre plates, Staphylococcus hominis; format: cell-based; conditions: for MIC: Staphylococcus hominis, DSM20328, 48 h, read-out: MIC [μg/ml] SH
# Experimental: (§1) Determination of the Minimum Inhibitory Concentration (MIC Value) in Microtitre Plates
# Casein-soybean flour-peptone broth for preparation of pre-cultures of test bacteria and yeast.
# Staphylococcus hominis DSM 20328 […]
# (§2) The test substances are pre-dissolved in dimethyl sulfoxide (DMSO) and tested in a dilution series of 1:2.
# (§3) The bacteria are cultured overnight in CASO broth and washed off using 10 ml of 0.85% sodium chloride solution (+0.1% Triton X-100).
# (§4) All the test organisms are adjusted to an organism count of 1-5×10^6 CFU/ml using 0.85% sodium chloride solution.
# (§5) The test substances are pre-pipetted into microtitre plates in amounts of 8 μl per well.
# (§6) Pre-diluted test organism suspensions are diluted 1:100 in CASO broth.
# (§7) The test batches are incubated for 48 hours at 37° C.
# (§8) After incubation, the growth is determined on the basis of the turbidity of the test batches (optical density) at 620 nm in a microplate reader.
# (§9) The minimum inhibitory concentration (MIC value) is the concentration of substance at which there is found (compared to the growth of the control) an appreciable inhibition of growth (≦20% growth) of the test organisms.
# (§10) One microtitre plate is used for each test organism and substance concentration.
# (§11) All the substances are tested in duplicate.
# [2] = test system: Escherichia coli NCTC 8196; assay: Determination of the Minimum Inhibitory Concentration (MIC value) in microtitre plates, Escherichia coli; format: cell-based; conditions: for MIC: Escherichia coli, NCTC8196, 48 h, read-out: MIC [μg/ml] EC
# Experimental: as §1
# Casein-soybean flour-peptone broth for preparation of pre-cultures of test bacteria and yeast. […]
# Escherichia coli NCTC 8196
# as §2, §3, §4, §5, §6, §7, §8, §9, §10, §11
# [3] = Staphylococcus hominis DSM 20328, CASO broth, 48 hours at 37° C., MIC = ≦20% growth (optical density at 620 nm)
# [4] = Escherichia coli NCTC 8196, CASO broth, 48 hours at 37° C., MIC = ≦20% growth (optical density at 620 nm)
Structure (SMILES),"MIC [1, 3]","MIC [2, 4]",other results
CCCCCCOc1ccc(CN2CCCCC2)cc1OC [Compound of formula (5)],> 120 µg/mL,> 120 µg/mL,
CCCCCCCCOc1ccc(CN2CCN(C(C)=O)CC2)cc1OC [Compound of formula (46)],> 120 µg/mL,120 µg/mL,
CCCOc1ccc(CN(C)C)cc1OC [Compound of formula (68)],> 120 µg/mL,> 120 µg/mL,
CCCCCCCCOc1ccc(CN2CCCCC2)cc1OC [Compound of formula (54)],60 µg/mL,30 µg/mL,
CCCCCCOc1ccc(CN2CCN(C)CC2)cc1OC [Compound of formula (28)],,,MIC [1]: > 120 µg/mL; MIC [2]: > 120 µg/mL
CCCCCCCCCCCCOc1ccc(CN2CCCCCC2)cc1OC [Compound of formula (10)],3.75 µg/mL,> 120 µg/mL,
CCCCCCCCCCCCOc1ccc(CN(C)CCc2ccccn2)cc1OC [Compound of formula (7)],60 µg/mL,> 120 µg/mL,
CCCCCCCCOc1ccc(CN2CCN(CC)CC2)cc1OC [Compound of formula (49)],60 µg/mL,120 µg/mL,
CCCCCCOc1ccc(CN2CCN(CC)CC2)cc1OC [Compound of formula (33)],,,MIC [1]: > 120 µg/mL; MIC [2]: > 120 µg/mL
CCCCCCCCCCCCOc1ccc(CN2CCCCC2)cc1 [Compound of formula (86)],7.5 µg/mL,> 120 µg/mL,
CCCOc1ccc(CN2CCOCC2)cc1OC [Compound of formula (56)],120 µg/mL,> 120 µg/mL,
CCCCCCCCCCCCOc1ccc(CN(C)CCCC)cc1OC [Compound of formula (9)],15 µg/mL,> 120 µg/mL,
CCCCCCCCCCCCOc1ccc(CN2CCNCC2)cc1OC [Compound of formula (21)],> 120 µg/mL,> 120 µg/mL,
CCCCCCCCCCCCOc1ccc(CN(C)C)cc1 [Compound of formula (84)],7.5 µg/mL,60 µg/mL,
CCCCCCCCCCCCOc1ccc(CN2CCCC2)cc1 [Compound of formula (82)],,60 µg/mL,"MIC [μg/ml] SH ([1]; Staphylococcus hominis DSM 20328, CASO broth, 48 hours at 37° C., MIC = ≦20% growth (optical density at 620 nm), listed as (82)): 7.5 µg/mL"
CCCCCCCCCCCCN(C)Cc1ccc(OCCC)c(OC)c1 [Compound of formula (67)],60 µg/mL,> 120 µg/mL,
CCCOc1ccc(CN2CCN(C)CC2)cc1OC [Compound of formula (60)],,,MIC [1]: > 120 µg/mL; MIC [2]: > 120 µg/mL
CCCCCCOc1ccc(CN2CCCCCC2)cc1OCCCCCC [Compound of formula (90)],7.5 µg/mL,> 120 µg/mL,
CCCCCCCCCCCCOc1ccc(CN2CCNCC2)cc1 [Compound of formula (85)],> 120 µg/mL,> 120 µg/mL,
CCCCCCOc1ccc(CN(C)C)cc1OC [Compound of formula (36)],> 120 µg/mL,> 120 µg/mL,
CCCCCCCCCCCCN(C)Cc1ccc(OCCCCCCCC)c(OC)c1 [Compound of formula (51)],> 120 µg/mL,> 120 µg/mL,

Structure (SMILES),"MIC [1, 3]","MIC [2, 4]",other results
CCCCCCOc1ccc(CN2CCN(C(C)=O)CC2)cc1OC [Compound of formula (30)],> 120 µg/mL,> 120 µg/mL,
CCCCCCCCCCCCOc1ccc(CN(C)Cc2ccccc2)cc1 [Compound of formula (79)],60 µg/mL,> 120 µg/mL,
CCCCCCOc1ccc(CN2CCN(c3cccc(OC)c3)CC2)cc1OC [Compound of formula (38)],> 120 µg/mL,> 120 µg/mL,
CCCCCCOc1ccc(CN2CCN(CC)CC2)cc1OCCCCCC [Compound of formula (97)],30 µg/mL,120 µg/mL,
CCCCCCCCOc1ccc(CN(C)CCCCCC)cc1OC [Compound of formula (48)],120 µg/mL,> 120 µg/mL,
CCCCCCOc1ccc(CN(C(C)C)C(C)C)cc1OC [Compound of formula (27)],> 120 µg/mL,> 120 µg/mL,
CCCCCCOc1ccc(CN2CCCCC2)cc1OCCCCCC [Compound of formula (102)],7.5 µg/mL,> 120 µg/mL,
CCCCCCCCCCCCOc1ccc(CN(C)C)cc1OC [Compound of formula (20)],7.5 µg/mL,15 µg/mL,
CCCCCCCCOc1ccc(CN2CCCCCC2)cc1OC [Compound of formula (42)],15 µg/mL,15 µg/mL,
CCCCCCCCOc1ccc(CN(C)C)cc1OC [Compound of formula (52)],120 µg/mL,120 µg/mL,
CCCCCCCCCCCCOc1ccc(CN(C)CCc2ccccn2)cc1 [Compound of formula (71)],> 120 µg/mL,> 120 µg/mL,
CCCCCCOc1ccc(CN(C)CCCC)cc1OC [Compound of formula (25)],> 120 µg/mL,> 120 µg/mL,
CCCCCCOc1ccc(CN2CCCC2)cc1OCCCCCC [Compound of formula (98)],3.75 µg/mL,7.5 µg/mL,
CCCCCCCCCCCCOc1ccc(CN(CC)CC)cc1OC [Compound of formula (13)],3.75 µg/mL,> 120 µg/mL,
CCCCCCCCCCCCOc1ccc(CN(C)CCCCCCCCCCCC)cc1OC [Compound of formula (19)],> 120 µg/mL,> 120 µg/mL,
CCCCCCCCCCCCOc1ccc(CN2CCN(C(C)=O)CC2)cc1 [Compound of formula (78)],> 120 µg/mL,> 120 µg/mL,
CCCCCCOc1ccc(CN(C)CCCCCC)cc1OCCCCCC [Compound of formula (96)],120 µg/mL,> 120 µg/mL,
CCCCCCCCCCCCOc1ccc(CN(C(C)C)C(C)C)cc1 [Compound of formula (75)],> 120 µg/mL,> 120 µg/mL,
CCCCCCOc1ccc(CN(C)C)cc1OCCCCCC [Compound of formula (100)],7.5 µg/mL,7.5 µg/mL,
CCCCCCOc1ccc(CN(C(C)C)C(C)C)cc1OCCCCCC [Compound of formula (91)],> 120 µg/mL,> 120 µg/mL,
CCCCCCOc1ccc(CN(C)CCc2ccccn2)cc1OCCCCCC [Compound of formula (87)],30 µg/mL,> 120 µg/mL,

Structure (SMILES),"MIC [1, 3]","MIC [2, 4]",other results
CCCCCCCCCCCCOc1ccc(CN(C)Cc2ccccc2)cc1OC [Compound of formula (15)],15 µg/mL,> 120 µg/mL,
CCCCCCCCCCCCOc1ccc(CN2CCOCC2)cc1OC [Compound of formula (8)],> 120 µg/mL,> 120 µg/mL,
CCCCCCN(C)Cc1ccc(OCCC)c(OC)c1 [Compound of formula (64)],> 120 µg/mL,> 120 µg/mL,
CCCCCCOc1ccc(CN2CCNCC2)cc1OC [Compound of formula (37)],,,MIC [1]: > 120 µg/mL; MIC [2]: > 120 µg/mL
CCCCCCCCCCCCOc1ccc(CN2CCN(c3cccc(OC)c3)CC2)cc1OC [Compound of formula (22)],> 120 µg/mL,> 120 µg/mL,
CCCCCCOc1ccc(CN2CCN(C(C)=O)CC2)cc1OCCCCCC [Compound of formula (94)],> 120 µg/mL,> 120 µg/mL,
CCCCCCCCCCCCOc1ccc(CN2CCN(C(C)=O)CC2)cc1OC [Compound of formula (14)],> 120 µg/mL,> 120 µg/mL,
CCCCCCCCCCCCOc1ccc(CN2CCCC2)cc1 [Compound of formula (83)],,,"MIC [μg/ml] SH ([1]; Staphylococcus hominis DSM 20328, CASO broth, 48 hours at 37° C., MIC = ≦20% growth (optical density at 620 nm), listed as (83)): >120 µg/mL; MIC [μg/ml] EC [2, 4]: >120 µg/mL"
CCCCCCCCCCCCOc1ccc(CN2CCN(C)CC2)cc1 [Compound of formula (76)],7.5 µg/mL,> 120 µg/mL,
CCCCCCCCCCCCOc1ccc(CN2CCN(CC)CC2)cc1 [Compound of formula (81)],15 µg/mL,> 120 µg/mL,
CCCCCCCCCCCCOc1ccc(CN2CCCCCC2)cc1 [Compound of formula (74)],3.75 µg/mL,> 120 µg/mL,
CCCCCCCCOc1ccc(CN(CC)CC)cc1OC [Compound of formula (45)],120 µg/mL,120 µg/mL,
CCCOc1ccc(CN2CCN(C(C)=O)CC2)cc1OC [Compound of formula (62)],> 120 µg/mL,> 120 µg/mL,
CCCCCCOc1ccc(CN2CCN(C)CC2)cc1OCCCCCC [Compound of formula (92)],15 µg/mL,60 µg/mL,
CCCCCCCCOc1ccc(CN(C)CCc2ccccn2)cc1OC [Compound of formula (39)],120 µg/mL,> 120 µg/mL,
CCCCCCOc1ccc(CN2CCCCCC2)cc1OC [Compound of formula (26)],> 120 µg/mL,> 120 µg/mL,
CCCCCCCCCCCCOc1ccc(CN2CCN(CC)CC2)cc1OC [Compound of formula (17)],7.5 µg/mL,> 120 µg/mL,
CCCOc1ccc(CN(CC)CC)cc1OC [Compound of formula (61)],> 120 µg/mL,> 120 µg/mL,
CCCOc1ccc(CN2CCNCC2)cc1OC [Compound of formula (69)],,,MIC [1]: > 120 µg/mL; MIC [2]: > 120 µg/mL
